Measurements taken from US20230233555A1 (AbbVie Inc., priority 2022, published 2023).
“Also recorded” adds a separate entry of the source.

Experiments:
[1] = Drug interaction studies: effect of co-administered drugs on upadacitinib pharmacokinetics (incl. Study M13-401); type: in vivo, human
Description: The data from Study M13-401 are provided in Table 38 and Table 39, which show the expected increase in Cmax and AUCss, respectively, in patients with UC across all dose levels with co-administration of CYP3A4 inhibitors.

P-gp, BCRP = test: In vitro transporter substrate assessment, P-gp and BCRP; type: in vitro ADME
[2] = Hepatic impairment pharmacokinetic study; type: in vivo, human
CYP2D6 = CYP2D6 (Homo sapiens, UniProt P10635); test: In vitro metabolism / substrate assessment, CYP2D6; type: in vitro ADME
[3] = human, in vivo
CYP3A4, CYP2B6, CYP1A2 = test: In vitro CYP induction; type: in vitro ADME
[4] = tested on: IL-6 (JAK1/JAK2)-induced STAT3 and IL-7 (JAK1/JAK3)-induced STAT5 phosphorylation; test: IL-6 induced STAT3 and IL-7 induced STAT5 phosphorylation in whole blood of healthy volunteers; type: in vivo, human; settings: immediate release formulation
Procedure: The maximal inhibition was observed 1 hour after dosing which returned to near baseline by the end of dosing interval.

[5] = Renal impairment pharmacokinetic study (Study M13-551); type: in vivo, human
Procedure: Renal clearance indicates some involvement of renal transporters in the excretion. Renal secretion is however not estimated to contribute to more than 25% of the elimination. […] As used herein, reference to “severe renal impairment” means a creatinine clearance of less than 30 mL/min.
This may increase the risk of adverse reactions; therefore, dosage modification in patients with severe renal impairment is recommended.

[6] = tested on: human peripheral blood lymphocytes; test: In vitro chromosome aberration assay; type: cell-based
pregnant rats = test: Oral embryo-fetal development studies in rats
[7] = Model-estimated and predicted upadacitinib Cmax and AUCss in UC patients with severe renal impairment; parameters: species or system human; settings: for Predicted Cmax in UC Patients with Severe Renal Impairment based on results from M13-551, Median: model-estimated value multiplied by 1.14; for Predicted AUCss in UC Patients with Severe Renal Impairment based on results from M13-551, Median: model-estimated value multiplied by 1.44
Procedure: Therefore, it is recommended that the induction dose is reduced in UC patients with severe renal impairment to 30 mg QD.
Therefore, it is recommended that the maintenance dose is reduced in UC patients with severe renal impairment to 15 mg QD.

[8] = Human radiolabeled [14C]-upadacitinib study (metabolism and excretion); type: in vivo
CYP3A4 = CYP3A4 (Homo sapiens, UniProt P08684); test: In vitro metabolism / substrate assessment, CYP3A4; type: in vitro ADME
Tg.rasH2 mice = test: Carcinogenicity study in Tg.rasH2 mice; type: in vivo, mouse; settings: 26 weeks, oral up to 20 mg/kg/day
[9] = e.g. ketoconazole, Study M13-401
[10] = ketoconazole 400 mg QD, upadacitinib IR formulation
[11] = rifampicin 600 mg QD for 8 days

CYP3A4, sequence (P08684 whole entry): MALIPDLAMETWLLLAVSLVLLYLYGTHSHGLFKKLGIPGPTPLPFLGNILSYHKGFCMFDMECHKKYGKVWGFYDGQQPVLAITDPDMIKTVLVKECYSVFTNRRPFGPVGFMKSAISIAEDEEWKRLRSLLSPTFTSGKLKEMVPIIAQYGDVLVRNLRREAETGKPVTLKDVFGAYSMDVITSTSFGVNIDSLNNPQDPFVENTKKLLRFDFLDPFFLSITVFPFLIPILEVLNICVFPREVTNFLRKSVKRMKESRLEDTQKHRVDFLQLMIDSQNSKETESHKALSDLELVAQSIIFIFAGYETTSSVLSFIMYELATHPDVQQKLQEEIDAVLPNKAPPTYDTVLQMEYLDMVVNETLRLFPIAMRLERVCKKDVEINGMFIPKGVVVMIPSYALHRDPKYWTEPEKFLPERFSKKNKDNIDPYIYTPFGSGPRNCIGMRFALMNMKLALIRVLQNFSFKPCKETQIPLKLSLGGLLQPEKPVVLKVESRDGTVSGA
CYP2D6, sequence (P10635 whole entry): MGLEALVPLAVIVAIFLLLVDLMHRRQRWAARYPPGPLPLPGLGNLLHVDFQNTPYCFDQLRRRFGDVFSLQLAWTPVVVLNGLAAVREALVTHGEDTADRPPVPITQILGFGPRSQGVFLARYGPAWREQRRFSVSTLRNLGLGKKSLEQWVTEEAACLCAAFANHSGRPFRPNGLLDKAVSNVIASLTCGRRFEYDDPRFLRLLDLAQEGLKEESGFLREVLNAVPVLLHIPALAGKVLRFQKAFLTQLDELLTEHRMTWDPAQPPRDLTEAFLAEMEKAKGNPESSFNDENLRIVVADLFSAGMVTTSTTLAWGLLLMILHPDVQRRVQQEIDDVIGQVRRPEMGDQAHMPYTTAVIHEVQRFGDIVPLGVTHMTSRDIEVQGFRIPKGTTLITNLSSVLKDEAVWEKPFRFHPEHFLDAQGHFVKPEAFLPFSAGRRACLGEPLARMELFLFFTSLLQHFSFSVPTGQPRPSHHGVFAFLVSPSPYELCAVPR

Compound: CC[C@@H]1CN(C(=O)NCC(F)(F)F)C[C@@H]1c1cnc2cnc3[nH]ccc3n12 [upadacitinib, (3S,4R)-3-Ethyl-4-(3H-imidazo[1,2-a]pyrrolo[2,3-e]pyrazin-8-yl)-N-(2,2,2-trifluoroethyl)pyrrolidine-1-carboxamide hydrate (2:1)]
- Upadacitinib exposure with methotrexate ([1]; co-administration with methotrexate): no effect
- Upadacitinib plasma exposure with strong CYP2D6 inhibitors, OATP1B inhibitors, MTX, pH modifying medications or statins ([1]; concomitant administration): no effect
- Upadacitinib AUC (AUCinf) increase with strong CYP3A4 inhibitor [1, 9]: 75%
- Upadacitinib Cmax increase with strong CYP3A4 inhibitor [1, 9]: 70%
- Upadacitinib half-life with ketoconazole ([1]; ketoconazole 400 mg QD): no effect on half-life
- Upadacitinib AUC increase with ketoconazole [1, 10]: 1.8 fold
- Upadacitinib Cmax increase with ketoconazole [1, 10]: 1.7 fold
- Upadacitinib AUC decrease with rifampicin [1, 11]: 60%
- Upadacitinib Cmax decrease with rifampicin [1, 11]: 50%
- Substrate of P-gp and BCRP (P-gp, BCRP): substrate
- Cmax vs normal liver function ([2]; mild hepatic impairment): unchanged
- AUC (AUCinf) higher vs normal hepatic function ([2]; mild hepatic impairment (Child-Pugh A)): 28%
- Cmax higher vs normal liver function ([2]; moderate hepatic impairment): 43%
- AUC (AUCinf) higher vs normal hepatic function ([2]; moderate hepatic impairment (Child-Pugh B)): 24%
- Substrate of / metabolised by CYP2D6 (CYP2D6): substrate; also recorded: potential minor contribution from CYP2D6
- AUCinf increase with high-fat/high-calorie meal [3]: 29%
- Accumulation after multiple once-daily administrations [3]: minimal accumulation
- Cmax increase with high-fat/high-calorie meal [3]: 39%
- Contribution of renal secretion to elimination [3]: ≤ 25%
- Dose proportionality of plasma exposures [3]: proportional to dose
- Time to steady-state plasma concentrations [3]: ≤ 4 days
- Induction of CYP1A2 (CYP3A4, CYP2B6, CYP1A2): borderline
- Induction of CYP3A4 and CYP2B6 (CYP3A4, CYP2B6, CYP1A2): inducer
- Inhibition of IL-6-induced STAT3 and IL-7-induced STAT5 phosphorylation in whole blood [4]: dose- and concentration-dependent inhibition
- Time of maximal inhibition after dosing [4]: 1 h
- Cmax, impaired vs normal renal function ([5]; in vivo): similar
- Contribution of the renal route to elimination ([5]; in vivo): approximately 25%
- AUCinf higher vs normal renal function ([5]; mild renal impairment): 18%
- AUCinf higher vs normal renal function ([5]; moderate renal impairment): 33%
- AUCinf higher vs normal renal function ([5]; severe renal impairment): 44%
- Cmax higher vs normal renal function ([5]; severe renal impairment, Study M13-551): 14%
- Genotoxicity, chromosome aberration [6]: tested negatively
- Exposure multiple with additional skeletal malformations and decreased fetal body weights, no maternal toxicity (pregnant rats; AUC basis, 75 mg/kg/day): approximately 48 times the MRHD of 30 mg
- Exposure multiple with teratogenicity (misshapen humerus, bent scapula) (pregnant rats; GD 6 to 17, AUC basis, 5 mg/kg/day and higher): ≥ 1.0 times the MRHD of 30 mg
- Exposure multiple with developmental toxicity (skeletal malformations, decreased fetal body weights) (pregnant rats; oral): ≥ 2 times the 15 mg dose
- Exposure multiple with no developmental toxicity (pregnant rats; oral, organogenesis): approximately 0.3 times the 15 mg dose
- Predicted Cmax in UC Patients with Severe Renal Impairment based on results from M13-551, Median ([7]; 7.5 mg treatment group): 23.0 ng/mL
- Predicted AUCss in UC Patients with Severe Renal Impairment based on results from M13-551, Median ([7]; 7.5 mg treatment group): 232 ng·h/mL
- Predicted Cmax in UC Patients with Severe Renal Impairment based on results from M13-551, Median ([7]; 15 mg treatment group): 47.1 ng/mL
- Predicted AUCss in UC Patients with Severe Renal Impairment based on results from M13-551, Median ([7]; 15 mg treatment group): 492 ng·h/mL
- Predicted Cmax in UC Patients with Severe Renal Impairment based on results from M13-551, Median ([7]; 30 mg treatment group): 89.5 ng/mL
- Predicted AUCss in UC Patients with Severe Renal Impairment based on results from M13-551, Median ([7]; 30 mg treatment group): 940 ng·h/mL
- Predicted Cmax in UC Patients with Severe Renal Impairment based on results from M13-551, Median ([7]; 45 mg treatment group): 138 ng/mL
- Predicted AUCss in UC Patients with Severe Renal Impairment based on results from M13-551, Median ([7]; 45 mg treatment group): 1431 ng·h/mL
- Unchanged upadacitinib share of total radioactivity in plasma ([8]; human radiolabeled study): 79%
- Active metabolites ([8]; in vivo): No active metabolites
- Substrate of / metabolised by CYP3A4 (CYP3A4): substrate; also recorded: mediated by mainly CYP3A4; also recorded: metabolized in vitro by CYP3A4
- Tumorigenicity (Tg.rasH2 mice): No evidence of tumorigenicity
